Data as given in ChEMBL document CHEMBL4616583 (J Med Chem, 2019).
In brackets after ≈: the same amount, converted by molar mass. Activity calls are given as the source filed them. No cut-off for these calls is given here.

Key:
in vivo [1] = conditions: rat, urine, po, 10 mg/kg
in vitro [2] = conditions: human, microsomes
in vivo [3] = conditions: mouse, plasma
in vivo [4] = conditions: mouse, plasma; remark: listed apart in the source
in vitro [5] = conditions: human, microsomes; remark: listed apart in the source
[6] = molecular target: Tyrosine-protein kinase BTK (Mus musculus) (UniProt P35991); conditions: 0.5 mg/kg
in vivo [7] = conditions: dog, iv, 1 mg/kg
in vivo [8] = conditions: rat, iv, 5 mg/kg
in vitro [9] = conditions: rhesus monkey, plasma
in vivo [10] = conditions: rhesus monkey, po, 2 mg/kg
Homo sapiens [11] = species: Homo sapiens; conditions: 10 uM
in vivo [12] = conditions: mouse, iv, 2 mg/kg
Mus musculus [13] = species: Mus musculus; conditions: DBA1/J, 0.1 to 2.5 mg/kg
in vitro [14] = conditions: dog, plasma
in vivo [15] = conditions: rat, iv, 5 mg/kg; remark: listed apart in the source
[16] = molecular target: Tyrosine-protein kinase BTK (Mus musculus) (UniProt P35991); conditions: DBA1/J, 0.1 mg/kg
in vivo [17] = conditions: rat, po, 5 mg/kg
physchem [18] = conditions: fed state simulated intestinal fluid (FeSSIF)
in vitro [19] = conditions: PAMPA, pH 7.4
in vitro [20] = conditions: mouse, plasma
[21] = molecular target: Tyrosine-protein kinase BTK (Mus musculus) (UniProt P35991); conditions: DBA1/J, 0.5 mg/kg
Homo sapiens [22] = species: Homo sapiens; conditions: 10 uM; remark: listed apart in the source
in vitro [23] = conditions: PAMPA, pH 5.5
in vivo [24] = conditions: dog, iv, 1 mg/kg; remark: listed apart in the source
in vivo [25] = conditions: rhesus monkey, po, 2 mg/kg; remark: listed apart in the source
in vivo [26] = conditions: dog, po, 2 mg/kg
in vivo [27] = conditions: mouse, po, 4 mg/kg
in vivo [28] = conditions: rhesus monkey, po, 2 mg/kg; remark: listed apart in the source
in vivo [29] = conditions: dog, po, 2 mg/kg; remark: listed apart in the source
Cynomolgus monkey [30] = assay: animal or person; conditions: Macaca fascicularis, po, 4 h, read-out: INH
[31] = molecular target: Tyrosine-protein kinase BTK (Mus musculus) (UniProt P35991); conditions: 0.5 to 2.5 mg/kg
in vitro [32] = conditions: human, plasma
physchem [33] = conditions: fasted state simulated intestinal fluid (FaSSIF)
in vivo [34] = conditions: mouse, iv, 2 mg/kg; remark: listed apart in the source
in vivo [35] = conditions: rat, po, 5 mg/kg; remark: listed apart in the source
in vitro [36] = conditions: rat, plasma
in vivo [37] = conditions: mouse, iv, 2 mg/kg; remark: listed apart in the source
[38] = molecular target: Tyrosine-protein kinase BTK (Mus musculus) (UniProt P35991); conditions: 0.5 mg/kg; remark: listed apart in the source
Mus musculus [39] = species: Mus musculus; assay: animal or person; conditions: NZB/WF1, po, 504 h, read-out: INH
B cell = assay: cells; conditions: Homo sapiens
[40] = molecular target: Tyrosine-protein kinase BTK (Mus musculus) (UniProt P35991); conditions: NZB/WF1, 0.2 mg/kg
physchem [41] = conditions: buffer, pH 7
in vivo [42] = conditions: rhesus monkey, iv, 1 mg/kg
in vivo [43] = conditions: mouse, po, 4 mg/kg; remark: listed apart in the source
in vivo [44] = conditions: mouse, iv, 2 mg/kg; remark: listed apart in the source
Mus musculus [45] = species: Mus musculus; assay: animal or person; conditions: NZB/WF1, po, 504 h, read-out: INH; remark: listed apart in the source
in vitro [46] = conditions: human, Caco-2
in vivo [47] = conditions: rhesus monkey, iv, 1 mg/kg; remark: listed apart in the source
in vivo [48] = conditions: mouse, po, 4 mg/kg; remark: listed apart in the source
in vivo [49] = conditions: rat, po, 5 mg/kg; remark: listed apart in the source
[50] = molecular target: Tyrosine-protein kinase BTK (Mus musculus) (UniProt P35991); conditions: NZB/WF1, 0.5 mg/kg
Mus musculus [51] = species: Mus musculus; assay: animal or person; conditions: NZB/WF1, po, 504 h, read-out: INH; remark: listed apart in the source
in vivo [52] = conditions: rhesus monkey, iv, 1 mg/kg; remark: listed apart in the source
in vivo [53] = conditions: mouse, po, 4 mg/kg; remark: listed apart in the source
in vitro [54] = conditions: human, Caco-2; remark: listed apart in the source
in vivo [55] = conditions: rat, iv, 5 mg/kg; remark: listed apart in the source
[56] = molecular target: Tyrosine-protein kinase BTK (Mus musculus) (UniProt P35991); conditions: DBA1/J, 2.5 mg/kg
in vivo [57] = conditions: rat, po, 5 mg/kg; remark: listed apart in the source
Cynomolgus monkey [58] = assay: animal or person; conditions: Macaca fascicularis, po, 72 h, read-out: INH
in vivo [59] = conditions: rhesus monkey, po, 2 mg/kg; remark: listed apart in the source
in vivo [60] = conditions: dog, iv, 1 mg/kg; remark: listed apart in the source
in vivo [61] = conditions: dog, po, 2 mg/kg; remark: listed apart in the source
physchem [62] = conditions: buffer, pH 1
in vivo [63] = conditions: dog, po, 2 mg/kg; remark: listed apart in the source
in vivo [64] = conditions: rhesus monkey, iv, 1 mg/kg; remark: listed apart in the source
in vivo [65] = conditions: rat, iv, 5 mg/kg; remark: listed apart in the source
Mus musculus [66] = species: Mus musculus; assay: animal or person; conditions: DBA1/J, po, 912 h, read-out: INH
in vivo [67] = conditions: dog, iv, 1 mg/kg; remark: listed apart in the source

Chain of Tyrosine-protein kinase BTK (Mus musculus) (P35991 whole entry): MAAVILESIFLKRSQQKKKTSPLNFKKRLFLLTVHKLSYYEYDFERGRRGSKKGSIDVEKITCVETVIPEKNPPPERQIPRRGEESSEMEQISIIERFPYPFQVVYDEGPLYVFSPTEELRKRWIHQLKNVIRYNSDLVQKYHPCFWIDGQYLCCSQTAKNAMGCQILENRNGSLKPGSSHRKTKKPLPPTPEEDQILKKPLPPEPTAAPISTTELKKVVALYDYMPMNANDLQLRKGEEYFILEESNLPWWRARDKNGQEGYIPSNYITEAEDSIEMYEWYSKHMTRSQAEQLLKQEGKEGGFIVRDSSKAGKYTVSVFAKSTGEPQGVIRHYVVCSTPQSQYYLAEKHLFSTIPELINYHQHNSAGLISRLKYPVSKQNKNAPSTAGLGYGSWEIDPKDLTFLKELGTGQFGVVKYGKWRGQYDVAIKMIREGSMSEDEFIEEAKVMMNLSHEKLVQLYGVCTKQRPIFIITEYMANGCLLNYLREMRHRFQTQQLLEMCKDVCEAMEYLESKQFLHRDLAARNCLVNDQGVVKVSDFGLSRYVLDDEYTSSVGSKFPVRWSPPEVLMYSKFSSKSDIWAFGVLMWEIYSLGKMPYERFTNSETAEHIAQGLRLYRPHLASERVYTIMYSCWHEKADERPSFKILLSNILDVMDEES

Which dose excreted at 72 h (in vivo [1]) does the source give for CC#C[14C](=O)N[C@H]1CCCN(c2c(F)cc(C(N)=O)c3[nH]c(C)c(C)c23)C1 here?
The dose excreted at 72 h was 0.7%.

For C=CS(=O)(=O)N[C@@H]1CCCN(c2ccc(C(N)=O)c3[nH]c(C)c(C)c23)C1, which remaining at 10 min (in vitro [2]) is on record?
The remaining at 10 min was 84%.

For CC#CC(=O)N[C@H]1CCCN(c2ccc(C(N)=O)c3[nH]c(C)c(C)c23)C1, which Cmax (in vivo [3]) is on record?
Its Cmax is 0.49 µM.

What about the AUC (in vivo [4]) of the same compound?
Its AUC is 1.1 µM·h.

With C=CS(=O)(=O)N[C@H]1CCCN(c2ccc(C(N)=O)c3[nH]c(C)c(C)c23)C1 as the compound, how does the Cmax (in vivo [3]) read?
Its Cmax is 0.127 µM.

What about the remaining at 10 min (in vitro [2]) of the same compound?
Its remaining at 10 min is 90%.

What about the half-life (in vitro [5]) of the same compound?
The half-life was 0.833 h.

For CC#CC(=O)N[C@H]1CCCN(c2c(F)cc(C(N)=O)c3[nH]c(C)c(C)c23)C1 [BRANEBRUTINIB], which inhibition [6] is on record?
The inhibition was 86%.

And the half-life (in vivo [7])?
The half-life was 3 h.

And the clearance (in vivo [8])?
The clearance was 8.7 mL/min/kg.

And the Cmax (in vivo [3])?
Its Cmax is 42 µM.

What about the fraction unbound (in vitro [9]) of the same compound?
Its fraction unbound is 0.004.

What about the bioavailability (in vivo [10]) of the same compound?
The bioavailability was 46%.

And the inhibition (Homo sapiens [11])?
Its inhibition is 23%.

What about the clearance (in vivo [12]) of the same compound?
The clearance was 14 mL/min/kg.

What about the inhibition (Mus musculus [13]) of the same compound?
The inhibition was “Active”.

What about the fraction unbound (in vitro [14]) of the same compound?
The fraction unbound was 0.002.

And the half-life (in vivo [15])?
Its half-life is 4.3 h.

And the inhibition [16]?
The inhibition was 64%.

What about the bioavailability (in vivo [17]) of the same compound?
The bioavailability was 74%.

And the solubility (physchem [18])?
The solubility was 145 µg/mL (≈ 391 µM).

And the Papp (in vitro [19])?
The Papp was 97.8 ×10⁻⁶ cm/s.

What about the fraction unbound (in vitro [20]) of the same compound?
Its fraction unbound is 0.004.

And the inhibition [21]?
Its inhibition is 97%.

What about the inhibition (Homo sapiens [22]) of the same compound?
Its inhibition is 3.1%.

And the Papp (in vitro [23])?
Its Papp is 85.9 ×10⁻⁶ cm/s.

And the MRT (in vivo [24])?
Its MRT is 4.1 h.

What about the Cmax (in vivo [25]) of the same compound?
Its Cmax is 2.3 µM.

What about the bioavailability (in vivo [26]) of the same compound?
Its bioavailability is 81%.

And the bioavailability (in vivo [27])?
Its bioavailability is 106%.

And the AUC (in vivo [28])?
Its AUC is 4.9 µM·h.

What about the Tmax (in vivo [29]) of the same compound?
Its Tmax is 0.67 h.

And the inhibition in vivo at 0.5 mg/kg (Cynomolgus monkey [30])?
The inhibition in vivo at 0.5 mg/kg was 100%.

What about the inhibition [31] of the same compound?
The inhibition was 25%.

What about the fraction unbound (in vitro [32]) of the same compound?
Its fraction unbound is 0.012.

What about the solubility (physchem [33]) of the same compound?
Its solubility is 9 µg/mL (≈ 24.3 µM).

What about the half-life (in vivo [34]) of the same compound?
The half-life was 0.46 h.

And the AUC (in vivo [35])?
Its AUC is 18 µM·h.

And the fraction unbound (in vitro [36])?
The fraction unbound was 0.002.

What about the Vd (in vivo [37]) of the same compound?
The Vd was 0.48 L/kg.

And the inhibition [38]?
The inhibition was 90%.

What about the inhibition in vivo at 0.5 mg/kg (Mus musculus [39]) of the same compound?
Its inhibition in vivo at 0.5 mg/kg is 51%.

And the IC50 (B cell)?
The IC50 was 0.04 nM.

What about the inhibition [40] of the same compound?
Its inhibition is 92%.

And the logD (physchem [41])?
Its logD is 3.18.

And the half-life (in vivo [42])?
The half-life was 3.2 h.

What about the Cmax (in vivo [43]) of the same compound?
Its Cmax is 7.7 µM.

What about the MRT (in vivo [44]) of the same compound?
Its MRT is 0.57 h.

And the inhibition in vivo at 0.2 mg/kg (Mus musculus [45])?
Its inhibition in vivo at 0.2 mg/kg is 40%.

What about the Papp B→A (in vitro [46]) of the same compound?
Its Papp B→A is 12.7 to 25 ×10⁻⁶ cm/s.

And the MRT (in vivo [47])?
Its MRT is 1 h.

What about the AUC (in vivo [48]) of the same compound?
Its AUC is 14 µM·h.

And the Tmax (in vivo [49])?
The Tmax was 0.58 h.

And the inhibition [50]?
Its inhibition is 99%.

What about the inhibition in vivo at […] (Mus musculus [51]) of the same compound?
The inhibition in vivo at […] was 61%.

And the Vd (in vivo [52])?
Its Vd is 0.45 L/kg.

What about the Tmax (in vivo [53]) of the same compound?
Its Tmax is 1 h.

And the AUC (in vivo [4])?
Its AUC is 52 µM·h.

And the Papp A→B (in vitro [54])?
Its Papp A→B is 17.7 to 42.2 ×10⁻⁶ cm/s.

What about the MRT (in vivo [55]) of the same compound?
Its MRT is 0.8 h.

What about the inhibition [56] of the same compound?
Its inhibition is 99%.

What about the Cmax (in vivo [57]) of the same compound?
Its Cmax is 9.6 µM.

And the inhibition in vivo at 0.5 mg/kg (Cynomolgus monkey [58])?
The inhibition in vivo at 0.5 mg/kg was 74%.

And the Tmax (in vivo [59])?
The Tmax was 1 h.

What about the Vd (in vivo [60]) of the same compound?
The Vd was 0.24 L/kg.

And the Cmax (in vivo [61])?
The Cmax was 19 µM.

What about the solubility (physchem [62]) of the same compound?
Its solubility is 2 to 3 µg/mL (≈ 5.4 to 8.1 µM).

And the AUC (in vivo [63])?
Its AUC is 78 µM·h.

What about the clearance (in vivo [64]) of the same compound?
Its clearance is 9.4 mL/min/kg.

And the Vd (in vivo [65])?
Its Vd is 0.4 L/kg.

And the inhibition in vivo at 2.5 mg/kg (Mus musculus [66])?
Its inhibition in vivo at 2.5 mg/kg is 92%.

And the clearance (in vivo [67])?
The clearance was 0.94 mL/min/kg.
